This note sets out measurements from PubChem BioAssay AID1996.

Converted amounts (≈) assume the structure as drawn.

The conditions of the data set: buffer; pH 7.4; 200.0 µM.
Consider `O=C(O)c1cc(S(=O)(=O)NCCOc2ccccc2)ccc1Cl`, for which the solubility (kinetic) (as a rule, solubility judged after dilution from a stock solution rather than from solid) is above 53.4 µg/mL.
With `O=C(CCN1C(=O)c2ccccc2C1=O)CN1CCOCC1`, the kinetic solubility came out at 36.5 µg/mL (≈ 121 µM).
With `CC(=O)Oc1ccc(C(=O)Nc2ccc3c(c2)OCCO3)cc1`, the kinetic solubility amounted to 38.9 µg/mL (≈ 124 µM).
For `O=C(O)CCCCCNS(=O)(=O)c1ccc2c(c1)OCCO2`, the kinetic solubility was above 49.4 µg/mL.
Turning to `CCNc1ccc(S(=O)(=O)NCCN(C)C)cc1[N+](=O)[O-]`, the kinetic solubility was found to be 42.4 µg/mL (≈ 134 µM).
With `COc1cc(/C=C/C(=O)Nc2cccnc2)cc(OC)c1OC` the figure was 40.9 µg/mL (≈ 130 µM).
Compound `CC(O)Cn1cnc2c1c(=O)n(C)c(=O)n2C` (stereo not drawn) showed a kinetic solubility above 35.7 µg/mL.
With `Brc1ccccc1OCCCCN1CCCCC1` the figure was 39.1 µg/mL (≈ 125 µM); with `O=C(Cc1ccccc1)O/N=C1\CCCc2ccccc21`, 17.1 µg/mL (≈ 61.2 µM).
The result for `CNCCc1ccc(O)c(O)c1.Cl` reads 17.2 µg/mL; that for `CC(=O)Nc1ccc(NC(=O)CCc2ccc(C)o2)cc1`, above 42.9 µg/mL; that for `N#C/C(=C\c1ccc(F)c(Br)c1)C(=O)NC1CC1`, 6.1 µg/mL (≈ 19.7 µM).
For the compound `COC(=O)CSc1nc(C)cc(N2CCOCC2)n1`, the solubility (kinetic) was above 42.5 µg/mL.
With `CN(C)c1nc(N(C)C)nc(N2CC(=O)N(c3ccccc3)C2=N)n1` the figure was 8.4 µg/mL (≈ 24.7 µM).
On to `N#Cc1ccccc1OCC(=O)OCC(=O)NC1CCS(=O)(=O)C1` (stereo not drawn), for which the kinetic solubility was above 52.9 µg/mL.
As for `CCN(C(=O)COC(=O)C1=COCCO1)c1ccccc1`, the kinetic solubility was above 43.7 µg/mL.
`CS(=O)(=O)c1ccccc1C(=O)Nc1cccc2ncccc12` gave a solubility (kinetic) of 35.9 µg/mL (≈ 110 µM).
With `Cc1ccc(S(=O)(=O)NCCc2c[nH]c3ccccc23)cc1` the figure was 37.7 µg/mL (≈ 120 µM); with `Nc1ccccc1C(=O)NCc1ccc(F)cc1`, above 36.6 µg/mL.
The result for `CN(Cc1nc2ccccc2c(=O)[nH]1)C(=O)c1cccc(S(=O)(=O)N2CCc3ccccc32)c1` reads 36.5 µg/mL (≈ 76.9 µM).
For `CC(NC(=O)N1CCOCC1)c1ccccc1` (stereo not drawn), the kinetic solubility was above 35.1 µg/mL.
With `O=C(NCCNC(=O)c1ccccn1)c1ccc(F)cc1` the figure was above 43.1 µg/mL.
With `O=C(CN1C(=O)c2ccc([N+](=O)[O-])cc2C1=O)Nc1nccs1` the figure was 26.2 µg/mL (≈ 78.8 µM); with `CCCC(=O)Nc1ccc2c(c1)COC2=O`, 18.5 µg/mL (≈ 84.4 µM); with `Nc1cc(Nc2ccccc2)c2nonc2c1[N+](=O)[O-]`, 0.5 µg/mL (≈ 1.84 µM).
The result for `O=C1Nc2cc(Br)ccc2C1(O)c1ccccc1O` (stereo not drawn) reads above 48 µg/mL.
As to `COC(=O)[C@H](CC(C)C)NC(=O)NCCC1=CCCCC1`, the solubility (kinetic) was above 44.5 µg/mL.
The result for `CC(=O)c1cccc(NC(=O)C2=CN3CCS(=O)(=O)N=C3C=C2)c1` reads 48.1 µg/mL (≈ 139 µM); that for `N/C(=N\OC(=O)c1ccc(Cl)c([N+](=O)[O-])c1)c1ccccn1`, 2.7 µg/mL (≈ 8.42 µM).
`Cc1ccc(C(=O)NCc2ccco2)cc1` had a kinetic solubility above 32.3 µg/mL.
In turn, `Cc1nc2c(c(=O)c3ccccc3n2C)c(=O)n1-c1ccccc1` returned a solubility (kinetic) of 46.2 µg/mL (≈ 146 µM).
`COc1ccc(C(=O)NCCN2CCOCC2)c(OC)c1`: the kinetic solubility is above 44.2 µg/mL.
Consider `CCc1ccccc1NC(=O)N1CCCc2ccccc21`, for which the solubility (kinetic) came out at 22.8 µg/mL (≈ 81.3 µM).
With `CCN(Cc1ccccc1)C(=O)c1cc2c(OC)c(OC)c(OC)cc2[nH]1`, the solubility (kinetic) amounted to 31.8 µg/mL (≈ 86.3 µM).
`CCc1nc2sc3c(=O)[nH]cnc3c2c2c1CSC(C)(C)C2` yielded a kinetic solubility of 16.7 µg/mL (≈ 50.4 µM).
Take `CCOC(=O)C1CCCN(C(=O)c2cccc3ccccc23)C1` (stereo not drawn): the solubility (kinetic) was above 46.7 µg/mL.
As for `O=C(Cc1ccccc1)Nc1nc(-c2ccc(F)c(F)c2)cs1`, the solubility (kinetic) is 0.4 µg/mL (≈ 1.21 µM).
`COCCN(C(=S)Nc1cccc(C)c1C)C(C)c1ccco1` (stereo not drawn) came in with a solubility (kinetic) of 40.1 µg/mL (≈ 121 µM).
Compound `CN[C@H]1CC[C@@H](c2ccc(Cl)c(Cl)c2)c2ccccc21` returned a solubility (kinetic) above 45.9 µg/mL.
Regarding `CC1(C(=O)Nc2ccccc2)Cc2ccccc2C(=O)O1` (stereo not drawn), the solubility (kinetic) is above 42.2 µg/mL.
With `CC(=O)Nc1ccc(N2C(=O)CSC2c2ccccc2[N+](=O)[O-])cc1` (stereo not drawn) the figure was 41.1 µg/mL (≈ 115 µM); with `COc1ccc2[nH]c(C(=O)N3CCc4ccccc4C3)c(C)c2c1`, 2.6 µg/mL (≈ 8.12 µM); with `CCOc1ccccc1CNS(=O)(=O)c1cnc[nH]1`, above 42.2 µg/mL.
For the compound `COc1ccc(C(C)(C)C)cc1NC(=O)C1CC(=O)N(C2CCCC2)C1` (stereo not drawn), the kinetic solubility was above 53.8 µg/mL.
For `O=[N+]([O-])c1cccc(S(=O)(=O)NCc2ccncc2)c1`, the solubility (kinetic) is above 44 µg/mL.
Compound `CCC1(CC)Cc2ccccc2-c2nc(CN(C)C)[nH]c(=O)c21` gave a solubility (kinetic) of 10.8 µg/mL (≈ 34.7 µM).
`CN1CCN(C(=O)/C=C/c2ccccc2)CC1` came in with a kinetic solubility above 34.5 µg/mL.
The result for `CCCCCCC(=O)c1c([O-])n(-c2ccc(OC)cc2)c(=O)[nH]c1=O.C[NH+](C)C` reads 44.5 µg/mL; that for `Cc1oc(/N=C/c2cccc([N+](=O)[O-])c2)c(C#N)c1C`, 7.2 µg/mL (≈ 26.7 µM).
With `CC(=O)c1cccc(S(=O)(=O)Nc2c(C)nn(C)c2C)c1`, the solubility (kinetic) was above 46.1 µg/mL.
The compound `N#Cc1ccsc1NC(=O)CN1CCOCC1` displayed a solubility (kinetic) of 28.6 µg/mL (≈ 114 µM).
`O=C(NCc1ccc2c(c1)OCO2)c1cc(=O)[nH]c2ccccc12` had a kinetic solubility of 6 µg/mL (≈ 18.6 µM).
In the case of `Cc1cccc(C(=O)O)c1NC(=O)Cc1cccc2ccccc12`, the kinetic solubility was above 47.9 µg/mL.
`CC(C)C(=O)NNC(=O)c1csc(-c2cccs2)n1` registered a kinetic solubility above 44.3 µg/mL.
`NC(=O)c1ccc(NC(=O)C2CCCC2)cc1`: the kinetic solubility is above 34.8 µg/mL.
Turning to `COc1ccc(Cl)cc1NC(=O)CN(C)C(=O)c1cccc2cccnc12`, the solubility (kinetic) stood at 48.5 µg/mL (≈ 126 µM).
The compound `CCCn1cnc2cc(NC(=O)c3ccco3)ccc21` displayed a kinetic solubility above 40.4 µg/mL.
With `CCCCCn1cc(C(=O)C(=O)N2CCOCC2)c2ccccc21` the figure was 46.8 µg/mL (≈ 143 µM); with `O=S(=O)(c1cc(F)ccc1F)N1CCC2(CC1)OCCO2`, above 47.9 µg/mL.
With `COc1ccccc1N(C)S(=O)(=O)c1ccc(C(=O)Nc2cccc(Br)c2)cc1` the figure was 3 µg/mL (≈ 6.31 µM).
The compound `COc1ccccc1NC(=O)CC(=O)Nc1ccccc1OC` returned a solubility (kinetic) above 47.2 µg/mL.
Compound `O=C(O)CSc1nc2sc3c(c2c(=O)n1-c1ccccc1)CCC3` displayed a kinetic solubility above 53.8 µg/mL.
With `CC1CCC(NS(=O)(=O)c2ccc3c(c2)CC(=O)N3)CC1` (stereo not drawn), the solubility (kinetic) turned out to be 27.3 µg/mL (≈ 88.5 µM).
For `CCN(c1ccccc1)S(=O)(=O)c1ccc(C(=O)N2CCN(c3ccccc3)CC2)cc1`, the solubility (kinetic) was 7 µg/mL (≈ 15.6 µM).
Turning to `Cc1ccc(-c2nc3cc(N)ccc3o2)cc1Br`, the solubility (kinetic) is 0.3 µg/mL (≈ 0.99 µM).
With `Cc1cccc(-n2c(C)nc3ccc(Cl)cc3c2=O)c1` the figure was 22.1 µg/mL (≈ 77.6 µM); with `CN(Cc1c(F)cccc1Cl)C(=O)c1ccc2ccccc2n1`, above 49.3 µg/mL.
On to `Cc1cc(OC(C)C(=O)Nc2ccncc2)ccc1Cl` (stereo not drawn), for which the kinetic solubility is above 43.6 µg/mL.
The compound `O=C(COC(=O)c1cccs1)Nc1ccccc1C(F)(F)F` registered a kinetic solubility of 2.5 µg/mL (≈ 7.59 µM).
With `OC(CC#CCN1CCCCC1)(c1ccccc1)c1ccccc1` the figure was above 47.9 µg/mL.
For `COCCNC(=S)Nc1ccc([N+](=O)[O-])cc1C`, the kinetic solubility is above 40.4 µg/mL.
The compound `O=C(c1cc2c(ccc3ccccc32)o1)N1CCCCC1` showed a kinetic solubility of 2.6 µg/mL (≈ 9.31 µM).
In the case of `Cl.O=C(OCCN1CCCCC1)c1cccc(Cl)c1`, the solubility (kinetic) is above 45.6 µg/mL.
The result for `NC(=S)c1c(Cl)cc(C(F)(F)F)cc1Cl` reads 40.6 µg/mL (≈ 148 µM); that for `CC(NC(=O)c1ccc([N+](=O)[O-])o1)C1CC2CCC1C2` (stereo not drawn), above 41.7 µg/mL; that for `C/C(=C\C(=O)c1ccc(Cl)cc1Cl)N(C)C`, 3.8 µg/mL (≈ 14.7 µM).
In the case of `COC(=O)c1ccc(Nc2c([N+](=O)[O-])c(=O)oc3ccccc23)cc1`, the solubility (kinetic) was 4.1 µg/mL (≈ 12 µM).
For the compound `Cc1cc(Oc2ccc(Cl)cc2)nc(-c2ccccn2)n1`, the solubility (kinetic) stood at 38.4 µg/mL (≈ 129 µM).
`Cc1ccc(O)c(CNc2nc3ccccc3n2C(C)C)c1` showed a solubility (kinetic) of 0.6 µg/mL (≈ 2.03 µM).
`CC(C)Oc1ccc(CNC(=S)Nc2ccccc2)cc1Cl` came in with a solubility (kinetic) of 7.2 µg/mL (≈ 21.5 µM).
As to `O=C(OCc1nc2ccsc2c(=O)[nH]1)c1ccccc1`, the kinetic solubility is above 42.9 µg/mL.
The compound `CCOC(=O)c1cnc2[nH]c3ccccc3n2c1=O` had a solubility (kinetic) of 23 µg/mL (≈ 89.4 µM).
The result for `O=C1[C@@H]2CSCN2C(=O)CN1Cc1cccc(C(F)(F)F)c1` reads 44 µg/mL (≈ 133 µM).
With `O=C(Nc1ccc(C(=O)N2CCCc3ccccc32)cc1)c1cccs1`, the solubility (kinetic) is below 0.4 µg/mL.
As for `CN(C)C(=O)c1ccc(=O)n(Cc2ccc(Cl)cc2Cl)c1`, the kinetic solubility was above 48.8 µg/mL.
`COc1cccc(C(=O)NCC(=O)OCC(=O)NC2CCCCC2)c1`: the solubility (kinetic) is above 52.3 µg/mL.
In turn, `O=C(CSc1nc(C(F)(F)F)cc(=O)[nH]1)N1CCCC1` registered a solubility (kinetic) above 46.1 µg/mL.
`CCn1c(CNC(=O)C23CC4CC(CC(C4)C2)C3)nnc1SC` showed a kinetic solubility above 50.2 µg/mL.
In turn, `N#CCCN(Cc1ccncc1)C(=S)NC1CC2C=CC1C2` (stereo not drawn) came in with a kinetic solubility of 46.3 µg/mL (≈ 148 µM).
For the compound `Cc1ccc(NC(=O)C2CCN(S(C)(=O)=O)CC2)cc1Cl`, the solubility (kinetic) was determined as 16.4 µg/mL (≈ 49.6 µM).
In the case of `CC(CCc1ccccc1)NCCC#N.Cl` (stereo not drawn), the kinetic solubility was above 35.8 µg/mL.
The result for `O=[N+]([O-])c1cncc([N+](=O)[O-])c1Nc1cccc(O)c1` reads above 41.4 µg/mL; that for `COc1ccc(C(=O)/C=C2/C(=O)Nc3ccccc32)c(OC)c1`, 12.7 µg/mL (≈ 41.1 µM).
`O=C(CN1C(=O)COc2ccccc21)NC1CCCC1` registered a solubility (kinetic) of 32.9 µg/mL (≈ 120 µM).
On to `CCN(CC)CCn1c(N)nc2ccccc21.Cl`, for which the kinetic solubility was 44.7 µg/mL. The solubility kinetic values of the last two compounds are within 1.5-fold of each other.
Compound `CCOc1cc(Cl)c(CNCCCN2CCOCC2)cc1OC` showed a kinetic solubility above 51.4 µg/mL.
`COc1ccc(NC(=O)CC(C)CC(=O)NCc2ccc(F)cc2)c(OC)c1` (stereo not drawn) registered a kinetic solubility of 6.8 µg/mL (≈ 17.5 µM).
With `O=C(COC(=O)c1cccs1)Nc1ccccc1[N+](=O)[O-]` the figure was 2 µg/mL (≈ 6.53 µM).
The result for `Cc1coc2cc3oc(=O)c(CCC(=O)NCc4ccccn4)c(C)c3cc12` reads 3.4 µg/mL (≈ 9.03 µM); that for `COc1ccccc1NC(=O)Nc1cccnc1`, 34.6 µg/mL (≈ 142 µM).
The result for `CC(C)(CC(=O)O)CC(=O)NCc1c(Cl)cccc1Oc1ccccc1` reads above 56.4 µg/mL.
Consider `COc1ccccc1CN1CCCC(CNC(=O)c2cccc3ccccc23)C1` (stereo not drawn), for which the solubility (kinetic) is 49.5 µg/mL (≈ 127 µM).
`Cc1ccc(C(=O)NCc2ccco2)c(C)c1` showed a kinetic solubility of 33.6 µg/mL (≈ 147 µM).
